Patent US12685725B2, “Pridopidine for the treatment of mitochondrial-associated diseases and disorders and endoplasmic reticulum (ER) stress” (PRILENIA NEUROTHERAPEUTICS LTD., priority 2019, dated 2026)
Like-named read-outs stand apart in the source and are kept apart here.

How the values were obtained:
[1] = system: WT and YAC128 cortical/striatal co-cultures; settings: 24 h
Experimental: Oxygen consumption rate (OCR) in WT and hemizygous YAC128 cortical/striatal co-cultures and NSCs was measured using Seahorse XFe-24/96 flux analyzers (Seahorse Bioscience, Billerica, MA, USA) following the manufacturer's instructions. […] Pridopidine (0.1, 1 and/or 5 μM) was added, when indicated in the graphs, 24 h before the experiment. The sensor cartridge plate was incubated with immersed sensors in a non-CO2 incubator at 37° C. for ~16 h (overnight). […] The cell medium was aspirated gently to avoid disturbing cell monolayers. […] Accordingly, mitochondrial basal respiration, maximal respiration and ATP production was automatically calculated and recorded by the Seahorse software. Data was normalized for protein levels.

[2] = system: HD human lymphoblasts; settings: pridopidine 24 h prior to H2O2 6 h, p=0.0016
Experimental: Cell viability was assessed on lymphoblasts using the MTS assay, a measure of mitochondrial function and cell survival. The assay was performed according to the manufacturer's instructions (Promega, catalog no. G1112). In the day of experiment, MTS reagent was added to the culture media (1:10) and incubated at 37° C. for 4 hours. Then, lymphoblasts were centrifuged at 145×g for 5 min and media was collected. The absorbance of the formazan dye produced by viable cells was quantified in the medium at OD=490 nm.

[3] = system: YAC128 cortical and striatal neurons; settings: 24 h
Experimental: After basal reading for 10 minutes, neurons were stimulated with antimycin A (2 μM).

[4] = system: Nrf2/ARE genes (Nqo1, Hmox1, GCLc) in HD lymphoblasts; settings: 5 μM, 24 h
Experimental: The qPCR was performed using the ABI Prism 7500 Sequence Detection System (Applied Biosystems). Each sample was run in triplicate. Gene expression was normalized to Rpl13a or UBC mRNA.

[5] = system: S1R-silenced HD lymphoblasts; settings: 5 μM, 24 h
Experimental: S1R depletion was induced by treating with S1R-directed siRNA duplexes (Origene, cat no: SR426072). siRNA transfection was performed in antibiotic-free growth medium using the Polyplus JETPRIME transfection protocol as per manufacturer's instructions (Polyplus). Forty-eight hours after transfection the cells were subjected to pridopidine treatment and/or oxidative stress challenge. S1R knockdown efficiency was determined by Immunoblot analysis.
TMRE assay: Primary neurons and lymphoblasts in suspension were cultured in 6-well plates.

[6] = system: YAC128 mice; settings: 30 mg/kg/day oral gavage 45 days, vs vehicle-treated HD mice, p=0.0270
Experimental: 1.5-month-old WT and hemizygous YAC128 mice (males and females in equal proportion) were divided into four groups. […] Mice were divided 4 animals per cage enriched in corn-husk nesting material and paper rolls, each cage representing one individual experiment, for a total of 9 animals per group. Pridopidine was dissolved in deionized sterile water. Animals were weighed every week and the volume of treatment adjusted accordingly. Mice were behaviorally tested in rotarod immediately before commencing treatment and on the day before finishing treatment. Tests were conducted blindly at a set time during the day. Mice were sacrificed 24 h after administration of the final pridopidine dose, and mitochondria isolated from the striatum.

## CCCN1CCC(c2cccc(S(C)(=O)=O)c2)CC1 [Pridopidine, 4-[3-(methylsulfonyl)phenyl]-1-propyl-piperidine]
[1]; HD Y128 corticostriatal neurons, 1 μM, p=0.0061
  maximal respiration: rescues maximal
[1]; HD Y128 corticostriatal neurons, 5 μM, p=0.002
  maximal respiration: rescues maximal
[1]; HD Y128 corticostriatal neurons, 5 μM, p=0.0358
  ATP production: rescues
[1]; HD Y128 corticostriatal neurons, 1 and 5 μM
  basal respiration: non-significant trend towards increasing basal respiration
[1]; WT cells, 1 and 5 μM
  maximal respiration: increases maximal respiration in both WT and Y128 cells
[1]; WT neurons, 1 μM, p=0.0058
  mitochondrial basal respiration: enhances mitochondrial basal respiration
[1]; WT neurons, 5 μM, p=0.0016
  mitochondrial basal respiration: enhances mitochondrial basal respiration
[1]; WT neurons, 5 μM, p=0.02
  ATP production: enhances
[2]
  increase in cell viability: approximately 50%
[3]; YAC128 cortical neurons, 1 μM, p<0.0001
  mito-H2O2 levels prompted by Ant A: reverts the increased levels of mito-H2O2 prompted by Ant A
[3]; YAC128 striatal neurons, 0.1 μM, p=0.0005
  mito-H2O2 levels prompted by Ant A: reverts the increased levels of mito-H2O2 prompted by Ant A
[3]; YAC128 striatal neurons, 1 μM, p<0.0001
  mito-H2O2 levels prompted by Ant A: reverts the increased levels of mito-H2O2 prompted by Ant A
[4]
  GCLc expression (mRNA): shows a trend towards upregulation
[4]; p=0.0010
  expression of Nqo1 (mRNA): significantly upregulates
[4]; p=0.0308
  expression of Hmox1 (mRNA): significantly upregulates
[5]; S1R+/+ cells
  mitochondrial membrane potential signal after H2O2 stimulation: increases TMRM signal after H2O2 stimulation
[5]; absence of the S1R (silenced ~83%), p<0.0001
  effect on mitochondrial membrane potential: abolished
[6]
  motor performance, latency to fall in accelerated rotarod: significant motor improvement
